This data set in a line: First pharmacokinetic study of I-ol, calculated blood concentration. The data set is classed as in vivo. The following applies: rat. The protocol: Following these studies, we performed a single pharmacokinetic study with I-ol to get evidence for a possible further development of this lead compound. The complete study is summarized in the Word document " First pharmacokinetic study of I-ol".
Assuming a maximum oral bioavailability of 0.1 percent for I-ol, the following comparison results:
The peroral intake of 0.4 mg I-ol/kg body weight of the rat leads to a blood concentration of 6.3 ng I-ol/ml, which corresponds to 26.3 nmol I-ol/l. An average body weight of 230 g and a blood volume of 14.5 ml was assumed. The molecular mass of I-ol is 240 g/mol. An oral bioavailability of 0.1% was used despite reasonable doubt about the finality of this amount.

Turning to `OCCCCCCCCCCCCn1ccnc1` [I-ol], for the setting “oral, assumed value from first pharmacokinetic study”, the maximum oral bioavailability is at most 0.1%. Besides, the calculated blood concentration (peroral 0.4 mg/kg body weight, bioavailability 0.1% assumed) is recorded as 26.3 nmol I-ol/l; the calculated blood concentration (peroral 0.4 mg/kg body weight, bioavailability 0.1%, blood volume 14.5 ml, body weight 230 g assumed) is given as 6.3 ng I-ol/ml; the calculated blood concentration (peroral 4 mg/kg, bioavailability 0.1% assumed) is 263 nmol/L; the calculated blood concentration (peroral 40 mg/kg, bioavailability 0.1% assumed) is 2630 nmol/L.

The values are drawn from publication PMC7377376, “Drug targeting CYP2E1 for the treatment of early-stage alcoholic steatohepatitis” (PLoS ONE, 2020).
